Experimental data published in patent publication US5616573A, “Glucocorticoids” (Schering Aktiengesellschaft, priority 1993, dated 1997).
*1 amine or outer side, *2 acyl side, *3 side chain or, on linkers, in order; H or OH if unused. Where a SMILES comes first, the peptide text is derived from it. The star is where a group is joined. Methylprednisolone(17-OCOEt) = CCC(=O)O[C@]1(C(=O)CO*)CC[C@H]2[C@@H]3C[C@H](C)C4=CC(=O)C=C[C@]4(C)[C@H]3[C@@H](O)C[C@@]21C; Phthalimidoacetyl = O=C1c2ccccc2C(=O)N1CC(=O)*; Diphenylacetyl = O=C(C(c1ccccc1)c1ccccc1)*; 2Naphthoyl = O=C(c1ccc2ccccc2c1)*; X7 = O=S(=O)(c1ccc(Cl)cc1)*; X8 = c1ccc(N(c2ccccc2)*)cc1; CO = O=C([*:1])[*:2]

Tested on: Esterases of Rat Skin
Assay: Cleavage in the Homogenate of Normal Rat Skin (unspecific cleavage by esterases of rat skin)
Assay type: in vitro ADME
Conditions: percent of hydrolysis rate of 6α-methylprednisolone-17-propionate-21-acetate; approximately 100 μmol/l, pH=7.4, 37° C.
Experimental: The homogenate of the skin of male rats (0.1 mol/l of phosphate buffer, pH=7.4) is centrifuged for 20 minutes at 10,000 g. The supernatant is adjusted in phosphate buffer to a protein concentration of 3 mg/ml. The test substances in 20 μl of ethanol are added to 1 ml of this homogenate. The final concentration of the corticoid derivatives is approximately 100 μmol/l. The incubation takes place for different periods at 37° C. At the end of incubation, the samples are extracted three times with 3 ml of chloroform. The combined extracts are evaporated to dryness under nitrogen and taken up with 100 μl of ethanol. The ethanolic solutions are mixed with the same volume of water and the saponification products are separated by HPLC (RP 18, acetonitrile/water-gradient, detection 240 nm). The relative hydrolysis rate is indicated in percent of the hydrolysis rate of the 6α-methylprednisolone-17-propionate-21-acetate.

Row | SMILES | Relative Hydrolysis Rate [%]
1 | CCC(=O)O[C@]1(C(=O)COC(=O)[C@@H](NC(=O)[C@@H]2CCCN2C(=O)[C@H](C)NC(=O)[C@H](C)NC(=O)CN2C(=O)c3ccccc3C2=O)C(C)C)CC[C@H]2[C@@H]3C[C@H](C)C4=CC(=O)C=C[C@]4(C)[C@H]3[C@@H](O)C[C@@]21C [Example 17, N-(N-(N-(N-(N-(Phthaloyl)-glycyl)-L-alanyl)-L-alanyl)-L-prolyl) -L-valine [11β,21-dihydroxy-3,20-dioxo-6α-methyl-17-propionyloxy-pregna-1,4-dien-21-yl] ester] (Phthalimidoacetyl-AAPV-{Methylprednisolone(17-OCOEt)}) | 49
2 | CCC(=O)O[C@]1(C(=O)COC(=O)[C@@H](NC(=O)[C@@H]2CCCN2C(=O)[C@H](C)NC(=O)[C@H](C)NS(=O)(=O)c2ccc(Cl)cc2)C(C)C)CC[C@H]2[C@@H]3C[C@H](C)C4=CC(=O)C=C[C@]4(C)[C@H]3[C@@H](O)C[C@@]21C [Example 14, N-(N-(N-(N-(4-Chlorobenzenesulfonyl)-L-alanyl)-L-alanyl)-L -prolyl)-L-valine [11β,21-dihydroxy-3,20-dioxo-6α-methyl-17-propionyloxy-pregna-1,4-dien-21-yl] ester] (X7-AAPV-{Methylprednisolone(17-OCOEt)}) | 6
3 | CCC(=O)O[C@]1(C(=O)COC(=O)[C@@H](NC(=O)[C@@H]2CCCN2C(=O)[C@H](C)NC(=O)[C@H](C)NC(=O)c2ccc3ccccc3c2)C(C)C)CC[C@H]2[C@@H]3C[C@H](C)C4=CC(=O)C=C[C@]4(C)[C@H]3[C@@H](O)C[C@@]21C [Example 12, N-(N-(N-(N-(2-Naphthoyl)-L-alanyl)-L-alanyl)-L-prolyl)-L-valine [11β,21-dihydroxy-3,20-dioxo-6α-methyl-17-propionyloxy-pregna-1,4-dien-21-yl] ester] (2Naphthoyl-AAPV-{Methylprednisolone(17-OCOEt)}) | 4
4 | CCC(=O)O[C@]1(C(=O)COC(=O)[C@@H](NC(=O)[C@@H]2CCCN2C(=O)[C@H](C)NC(=O)[C@H](C)NC(=O)C(c2ccccc2)c2ccccc2)C(C)C)CC[C@H]2[C@@H]3C[C@H](C)C4=CC(=O)C=C[C@]4(C)[C@H]3[C@@H](O)C[C@@]21C [Example 10, N-(N-(N-(N-((Diphenylmethyl)carbonyl)-L-alanyl)-L-alanyl)-L -prolyl)-L-valine [11β,21-dihydroxy-3,20-dioxo-6α-methyl-17-propionyloxy-pregna-1,4-dien-21-yl] ester] (Diphenylacetyl-AAPV-{Methylprednisolone(17-OCOEt)}) | 6
5 | CCC(=O)O[C@]1(C(=O)COC(=O)[C@@H](NC(=O)[C@@H]2CCCN2C(=O)[C@H](C)NC(=O)[C@H](C)NC(=O)N(c2ccccc2)c2ccccc2)C(C)C)CC[C@H]2[C@@H]3C[C@H](C)C4=CC(=O)C=C[C@]4(C)[C@H]3[C@@H](O)C[C@@]21C [Example 11, N-(N-(N-(N-(Diphenylcarbamoyl)-L-alanyl)-L-alanyl)-L-prolyl)-L-valine [11β,21-dihydroxy-3,20-dioxo-6α-methyl-17-propionyloxy-pregna-1,4-dien-21-yl] ester] ({X8-CO}-AAPV-{Methylprednisolone(17-OCOEt)}) | 14
6 | CCCCC(=O)O[C@]1(C(=O)COC(=O)[C@@H](NC(=O)[C@@H]2CCCN2C(=O)[C@H](C)NC(=O)[C@H](C)NC(=O)OC(C)(C)C)C(C)C)[C@@H](C)C[C@H]2[C@@H]3CCC4=CC(=O)C=C[C@]4(C)[C@@]3(F)[C@@H](O)C[C@@]21C [Example 38, N-(N-(N-(N-((1,1-Dimethyl)ethoxycarbonyl)-L-alanyl)-L-alanyl)-L -prolyl)-L-valine [9α-fluoro-11β,21-dihydroxy-16β-methyl-3,20-dioxo-17-valeroyloxy-pregna-1,4-dien-21-yl] ester] | 0
